Toxic doses and inconclusive results are not listed.
System: P388 leukemia ip, CD2F1 mice, survival T/C
Assay: NCI In Vivo Anticancer Drug Screen. Data for tumor model P388 Leukemia (intraperitoneal) in CD2F1 (CDF1) mice
Conditions: endpoint: median survival time, higher = longer survival
How it was run: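 Mice carrying the transplanted tumor received test compound or vehicle. Survival was recorded in each group, and the value is the treated-group measurement divided by that of the vehicle-treated control group.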

[1] = dose: 100.0 mg/kg/injection, schedule: Q01DX001 (ip), vehicle: Klucel (hydroxypropylcellulose) (HPC)
[2] = dose: 200.0 mg/kg/injection, schedule: Q01DX001 (ip), vehicle: Klucel (hydroxypropylcellulose) (HPC)
[3] = dose: 400.0 mg/kg/injection, schedule: Q01DX001 (ip), vehicle: Klucel (hydroxypropylcellulose) (HPC)
[4] = dose: 50.0 mg/kg/injection, schedule: Q01DX009 (ip), vehicle: Klucel (hydroxypropylcellulose) (HPC)
[5] = dose: 100.0 mg/kg/injection, schedule: Q01DX009 (ip), vehicle: Klucel (hydroxypropylcellulose) (HPC)
[6] = dose: 200.0 mg/kg/injection, schedule: Q01DX009 (ip), vehicle: Klucel (hydroxypropylcellulose) (HPC)
[7] = dose: 60.0 mg/kg/injection, schedule: Q01DX005 (ip), vehicle: saline with Tween-80
[8] = dose: 120.0 mg/kg/injection, schedule: Q01DX005 (ip), vehicle: saline with Tween-80

`O=CNNc1cccc(Cl)n1` was tested, and the T/C [1] was 97 % of control, the T/C [2] was 97 % of control and the T/C [3] was 98 % of control.
For `CC1(C)C(N2CCOCC2)C(c2ccccc2)S1(=O)=O` (stereo unspecified), the T/C (dose: 50.0 mg/kg/injection, schedule: Q01DX001 (ip), vehicle: saline with Tween-80) was 91 % of control, the T/C (dose: 100.0 mg/kg/injection, schedule: Q01DX001 (ip), vehicle: saline with Tween-80) was 100 % of control and the T/C (dose: 200.0 mg/kg/injection, schedule: Q01DX001 (ip), vehicle: saline with Tween-80) was 95 % of control.
`O=C(c1ccc(Cl)c(Cl)c1)N1CCNC1=S` was tested, and the T/C [4] was 104 % of control, the T/C [5] was 104 % of control and the T/C [6] was 100 % of control.
`O=C(NCCCl)Oc1c(Cl)cc(Cl)cc1Cl` was tested, and the T/C (dose: 12.5 mg/kg/injection, schedule: Q01DX005 (ip), vehicle: Klucel (hydroxypropylcellulose) (HPC)) was 106 % of control and the T/C (dose: 25.0 mg/kg/injection, schedule: Q01DX005 (ip), vehicle: Klucel (hydroxypropylcellulose) (HPC)) was 104 % of control.
In the case of `O=C([O-])C(=O)[N-]CCC[N-]C(=O)C(=O)[N-]CCC[N-]C(=O)C(=O)[O-].[Cu+2].[Cu+2].[Na+]`, the T/C (dose: 3.75 mg/kg/injection, schedule: Q01DX005 (ip), vehicle: saline with Tween-80) is reported as 103 % of control, the T/C (dose: 7.5 mg/kg/injection, schedule: Q01DX005 (ip), vehicle: saline with Tween-80) is reported as 104 % of control and the T/C (dose: 15.0 mg/kg/injection, schedule: Q01DX005 (ip), vehicle: saline with Tween-80) is reported as 101 % of control.
In the case of `CC(C#N)C(N)=O` (stereo unspecified), the T/C (dose: 12.5 mg/kg/injection, schedule: Q04DX003 (ip), vehicle: saline) is reported as 100 % of control, the T/C (dose: 25.0 mg/kg/injection, schedule: Q04DX003 (ip), vehicle: saline) is reported as 105 % of control and the T/C (dose: 50.0 mg/kg/injection, schedule: Q04DX003 (ip), vehicle: saline) is reported as 110 % of control.
`C1CCC2(CC1)OCCCO2` was tested, and the T/C [1] was 94 % of control, the T/C [2] was 99 % of control and the T/C [3] was 107 % of control.
`CC1=C(C)C(=O)c2nn(C)nc2C1=O` was tested, and the T/C (dose: 6.25 mg/kg/injection, schedule: Q01DX001 (ip), vehicle: saline) was 100 % of control, the T/C (dose: 12.5 mg/kg/injection, schedule: Q01DX001 (ip), vehicle: saline) was 98 % of control and the T/C (dose: 25.0 mg/kg/injection, schedule: Q01DX001 (ip), vehicle: saline) was 99 % of control.
With `COc1cc2c[n+]3ccc4ccccc4c3c(N)c2cc1OC` the T/C (dose: 50.0 mg/kg/injection, schedule: Q04DX003 (ip), vehicle: distilled water + Tween-80) was 97 % of control and the T/C (dose: 100.0 mg/kg/injection, schedule: Q04DX003 (ip), vehicle: distilled water + Tween-80) was 106 % of control.
With `C=C1NC(=O)C(N)=C1C(C)=O` the T/C [7] was 100 % of control and the T/C [8] was 104 % of control.
`CCN(CC)CCCNc1cc(OC)c(Nc2ccccc2)c2cccnc12` was tested, and the T/C (dose: 3.12 mg/kg/injection, schedule: Q01DX005 (ip), vehicle: suspension in saline) was 112 % of control, the T/C (dose: 6.25 mg/kg/injection, schedule: Q01DX005 (ip), vehicle: suspension in saline) was 100 % of control and the T/C (dose: 12.5 mg/kg/injection, schedule: Q01DX005 (ip), vehicle: suspension in saline) was 99 % of control.
In the case of `CCCCCCCCCCCN1CCS(=O)(=O)CC1`, the T/C [4] is reported as 100 % of control, the T/C [5] is reported as 98 % of control and the T/C [6] is reported as 94 % of control.
`COc1ccc(Cc2c3cc(OC)c(OC)cc3cc[n+]2CC(=O)c2ccc(Cl)cc2)cc1OC` was tested, and the T/C (dose: 50.0 mg/kg/injection, schedule: Q01DX005 (ip), vehicle: Klucel (hydroxypropylcellulose) (HPC)) was 105 % of control and the T/C (dose: 100.0 mg/kg/injection, schedule: Q01DX005 (ip), vehicle: Klucel (hydroxypropylcellulose) (HPC)) was 111 % of control.
`CCOC(=O)C12CCCCC1OC(=N)C2` (stereo unspecified) was tested, and the T/C (dose: 60.0 mg/kg/injection, schedule: Q01DX005 (ip), vehicle: Klucel + Tween-80) was 101 % of control, the T/C (dose: 120.0 mg/kg/injection, schedule: Q01DX005 (ip), vehicle: Klucel + Tween-80) was 98 % of control and the T/C (dose: 240.0 mg/kg/injection, schedule: Q01DX005 (ip), vehicle: Klucel + Tween-80) was 99 % of control.
With `OCc1c(CO)c2cccn2c2c1cnn2-c1ccccc1` the T/C [7] was 100 % of control, the T/C [8] was 90 % of control and the T/C (dose: 240.0 mg/kg/injection, schedule: Q01DX005 (ip), vehicle: saline with Tween-80) was 89 % of control.
